# Experimental data: paper PMC9860728, “Identification of New N-methyl-piperazine Chalcones as Dual MAO-B/AChE Inhibitors” (Pharmaceuticals, 2023)
# Assays:
# [1] = molecular target: T1, AChE (Electrophorus electricus, UniProt O42275); test: AChE inhibition assay (Ellman method, ATCI); assay type: biochemical; details: mean ± SD
# Procedure: (§1) For measuring cholinesterase (ChE) activity, the Ellman method was employed with a slight modification. The AChE and BchE with ~0.02 U/mL were reacted with 0.5 mM ATCI and BTCI, respectively, followed by addition of 0.5 mM DTNB. […] In the inhibition assay, the enzyme and the compound were preincubated in reaction buffer for 15 min, followed by adding substrates and DTNB.
# [2] = molecular target: BChE (Equus caballus, UniProt P81908); test: biochemical
# BChE, sequence (P81908 whole entry): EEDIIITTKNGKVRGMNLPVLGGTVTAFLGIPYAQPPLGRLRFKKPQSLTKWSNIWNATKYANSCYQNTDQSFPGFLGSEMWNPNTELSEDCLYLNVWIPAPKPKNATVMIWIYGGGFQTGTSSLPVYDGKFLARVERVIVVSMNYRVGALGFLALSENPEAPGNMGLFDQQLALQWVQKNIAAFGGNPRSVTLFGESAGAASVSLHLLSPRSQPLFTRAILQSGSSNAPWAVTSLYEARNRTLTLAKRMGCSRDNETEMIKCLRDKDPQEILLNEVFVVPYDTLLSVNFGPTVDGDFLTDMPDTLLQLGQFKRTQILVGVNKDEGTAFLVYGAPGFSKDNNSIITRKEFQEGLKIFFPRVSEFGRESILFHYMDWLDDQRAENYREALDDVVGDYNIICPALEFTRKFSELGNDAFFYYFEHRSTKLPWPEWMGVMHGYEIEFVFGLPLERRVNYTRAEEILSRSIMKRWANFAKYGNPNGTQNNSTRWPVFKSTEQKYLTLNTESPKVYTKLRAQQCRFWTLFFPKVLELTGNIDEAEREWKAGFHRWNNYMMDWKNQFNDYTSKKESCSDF
# Procedure: as §1
# [3] = Cytotoxicity MTT assay on normal Vero cells; details: African green monkey
# Procedure: The reference compound staurosporine was purchased from Sigma-Aldrich (Saint Louis, MO, USA). […] CellTiter 96® Non-Radioactive Cell Proliferation Assay (MTT) reagent was purchased from Promega (Cat# G4000). The normal Vero cell line was purchased from ATCC. Normal Vero cells were cultured with EMEM medium plus 10% FBS. In total, 100 µg/mL penicillin and 100 µg/mL streptomycin were added to the culture media.
# The test compounds (100 nL) and staurosporine (25 nL) were delivered from the source plate to the wells of 384-well cell culture plates by Echo 550 Liquid Handler. […] MTT Dye Solution (8 µL) was added to each well, and the plates were incubated at 37 °C in a CO2 incubator for 6 h. After incubation, the formazan was produced in the cells. Solubilization/Stop Solution (30 µL) was added to each well and the plates were incubated for another 1 h at 37 °C in a CO2 incubator to dissolve the formazan crystals. […] The IC50 curves were plotted, and the IC50 values were calculated using the GraphPad Prism 4 program based on a sigmoidal dose–response equation.
# [4] = molecular target: T2, MAO-B (Homo sapiens, UniProt P27338); test: Reversibility test for MAO-B using dialysis method; assay type: biochemical; details: for Residual activity of MAO-B after dialysis: after dialysis for 6 h, inhibitor at ~2 × IC50
# T2 construct: purchased Sigma Aldrich
# T2 sequence (P27338 1-520): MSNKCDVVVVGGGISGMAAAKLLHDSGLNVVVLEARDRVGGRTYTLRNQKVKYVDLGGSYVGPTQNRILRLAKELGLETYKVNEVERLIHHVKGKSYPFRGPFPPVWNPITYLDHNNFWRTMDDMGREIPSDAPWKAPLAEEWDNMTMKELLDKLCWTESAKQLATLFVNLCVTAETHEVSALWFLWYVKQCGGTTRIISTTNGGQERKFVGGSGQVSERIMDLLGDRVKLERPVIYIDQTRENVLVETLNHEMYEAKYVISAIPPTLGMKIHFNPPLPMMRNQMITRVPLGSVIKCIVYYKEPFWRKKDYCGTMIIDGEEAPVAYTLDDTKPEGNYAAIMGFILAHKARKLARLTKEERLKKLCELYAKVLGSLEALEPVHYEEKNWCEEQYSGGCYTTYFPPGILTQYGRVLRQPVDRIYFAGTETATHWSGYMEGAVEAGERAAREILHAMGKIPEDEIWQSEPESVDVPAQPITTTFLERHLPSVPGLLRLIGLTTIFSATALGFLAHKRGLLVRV
# Procedure: Reversibility of the compounds for MAO-B was measured using the dialysis method. […] The reaction mixture was placed in a dialysis tube (DiaEasyTM Dialyzer (800 µL) MWCO 6–8 kDa, Biovision, CA, USA) and dialyzed for 6 h. After that, the 0.3 mM of benzylamine was added into the reaction mixture for measuring enzyme activity. The relative activity to the control (without inhibitors) before and after dialysis was calculated, respectively.
# [5] = molecular target: T1, AChE; test: AChE inhibition kinetics (Lineweaver–Burk and secondary plots); assay type: biochemical
# [6] = molecular target: T3, MAO-A (Homo sapiens, UniProt P21397); test: MAO-A enzyme inhibition assay (kynuramine substrate); assay type: biochemical; details: mean ± SD
# T3 construct: purchased Sigma Aldrich
# T3 sequence (P21397 1-527): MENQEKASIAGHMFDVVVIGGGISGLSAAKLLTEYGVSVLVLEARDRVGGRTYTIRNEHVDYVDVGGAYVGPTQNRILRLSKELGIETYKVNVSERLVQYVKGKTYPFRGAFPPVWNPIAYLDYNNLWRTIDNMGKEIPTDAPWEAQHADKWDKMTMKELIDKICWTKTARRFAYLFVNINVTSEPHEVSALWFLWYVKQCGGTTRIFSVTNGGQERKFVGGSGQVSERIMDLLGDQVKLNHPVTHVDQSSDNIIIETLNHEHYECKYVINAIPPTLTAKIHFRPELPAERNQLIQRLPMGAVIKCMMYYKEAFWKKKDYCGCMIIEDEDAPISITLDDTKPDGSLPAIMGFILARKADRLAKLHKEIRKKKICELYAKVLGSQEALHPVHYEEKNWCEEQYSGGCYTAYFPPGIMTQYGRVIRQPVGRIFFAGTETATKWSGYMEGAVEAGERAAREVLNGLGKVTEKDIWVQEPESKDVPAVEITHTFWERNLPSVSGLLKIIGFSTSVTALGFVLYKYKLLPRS
# Procedure: MAO assays were performed as described previously, i.e., ~0.09 U/mL of MAO-A and MAO-B were reacted with 0.06 mM kynuramine and 0.3 mM benzylamine, respectively, in 50 mM sodium phosphate (pH 7.2). […] For inhibition assay, the compounds were dissolved in DMSO and added into the reaction mixture. The final concentration of DMSO in the reaction mixture was less than 1% to avoid solvent disturbance.
# [7] = molecular target: T1, AChE; details: read-out: Ki AChE; morpholine-based chalcones; cited from earlier work
# [8] = molecular target: T2, MAO-B; details: MAO-B selectivity over MAO-A; cited from earlier work
# [9] = read-out: Residual activity of MAO-B before dialysis
# T1 sequence (O42275 24-633): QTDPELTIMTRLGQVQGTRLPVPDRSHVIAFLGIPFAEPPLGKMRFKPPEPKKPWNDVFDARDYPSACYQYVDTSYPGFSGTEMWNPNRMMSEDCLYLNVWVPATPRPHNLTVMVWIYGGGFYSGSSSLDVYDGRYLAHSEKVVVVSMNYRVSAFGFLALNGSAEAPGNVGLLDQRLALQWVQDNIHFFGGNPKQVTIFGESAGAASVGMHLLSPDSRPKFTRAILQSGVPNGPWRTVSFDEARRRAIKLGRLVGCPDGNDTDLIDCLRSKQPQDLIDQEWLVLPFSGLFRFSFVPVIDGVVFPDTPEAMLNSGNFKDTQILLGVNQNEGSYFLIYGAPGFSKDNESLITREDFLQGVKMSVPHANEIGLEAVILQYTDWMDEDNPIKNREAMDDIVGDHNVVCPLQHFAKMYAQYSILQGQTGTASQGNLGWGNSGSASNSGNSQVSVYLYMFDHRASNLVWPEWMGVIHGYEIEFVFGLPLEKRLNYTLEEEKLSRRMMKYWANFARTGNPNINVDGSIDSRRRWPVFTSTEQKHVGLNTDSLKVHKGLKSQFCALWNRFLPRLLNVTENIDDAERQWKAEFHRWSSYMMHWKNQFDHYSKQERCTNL
smiles,measurement,setting,value
"CN1CCN(c2ccc(C(=O)/C=C/c3ccc(F)c(C(F)(F)F)c3)cc2)CC1 [Compound 2k, (E)-3-(4-fluoro-3-(trifluoromethyl)phenyl)-1-(4-(4-methylpiperazin-1-yl)phenyl)prop-2-en-1-one]",remaining activity at 10 µM,"[1]; 10 μM compound, read-out: Residual Activities at 10 μM (%) AChE",46.9 ± 2.58%
same,remaining activity at 10 µM,[2]; read-out: Residual Activities at 10 μM (%) BChE,61.8 ± 5.54%
same,IC50 at 72 h,[3],19.9 µM
same,Residual activity of MAO-B after dialysis,[4],80.26%
same,Reversibility of MAO-B inhibition,[4]; dialysis method,reversible
same,remaining activity at 1.16 µM,[4]; [9],14.6%
same,Inhibition pattern for AChE,[5],mixed type
same,remaining activity at 10 µM,"[6]; 10 μM compound, read-out: Residual Activities at 10 μM (%) MAO-A",96.4 ± 3.03%
same,IC50,[6],> 40 µM
"CN1CCN(c2ccc(C(=O)/C=C/c3cc(Br)ccc3F)cc2)CC1 [Compound 2n, (E)-3-(5-bromo-2-fluorophenyl)-1-(4-(4-methylpiperazin-1-yl)phenyl)prop-2-en-1-one]",IC50,[1],4.32 ± 0.39 µM
same,Residual Activities at 10 μM (%) BChE,"[2]; 10 μM compound, mean ± SD",43.21 ± 2.88%
same,IC50 at 72 h,[3],62 µM
same,Inhibition pattern for AChE,[5],mixed type
"NCCNC(=O)c1ccc(Cl)cn1 [Lazabemide, reference compound]",Residual activity of MAO-B after dialysis,[4],98.78%
same,remaining activity at 0.22 µM,[4]; [9],20.5%
CN(C)c1ccc(/C=C/C(=O)c2ccc(N3CCOCC3)cc2)cc1 [MO5],Ki,[7],2.52 µM
O=C(/C=C/c1ccc(Br)cc1)c1ccc(N2CCOCC2)cc1 [MO9],Ki,[7],7.04 µM
O=C(/C=C/c1ccc(F)cc1)c1ccc(N2CCNCC2)cc1 [PC10],SI (MAO),[8],48.3
O=C(/C=C/c1ccc(C(F)(F)F)cc1)c1ccc(N2CCNCC2)cc1 [PC11],SI (MAO),[8],49.2
"C#CCN(C)Cc1ccccc1 [Pargyline, reference compound]",Residual activity of MAO-B after dialysis,[4],24.88%
